# Experimental data reported in patent US10351914B2, “Biomarkers for Pin1-associated disorders” (Beth Israel Deaconess Medical Center, Inc., priority 2014, dated 2019).
# Assays:
# Pin1 acetylation = Pin1 acetylation in cells (Co-IP with anti-Flag antibody, immunoblotting with anti-acetyl lysine antibody); format: cell-based
# From the text: FIG. 1 depicts HTS results for glucose starvation induced Pin1 deacetylation in cells 100. Different stress tests, such as heat shock, ultraviolet radiation, and glucose starvation (Glu^−), may produce an extracellular stimulus that could transform one or more cellular responses related to cell growth, differentiation, activation of transcript factors, glucose metabolism, control of proteins synthesis, and regulation of cell cycle. Among these stresses testes, glucose starvation (Glu^−), may reduce Pin1 acetylation without affecting its protein expression (FIG. 1 A). […] Protein acetylation may be catalytically modulated by a particular pair of histone acetyl transferase (HAT) and histone deacetylase (HDAC) (Yang and Seto, 2007). To identify the HAT and HDAC that modulates Pin1 acetylation, Flag-tagged Pin1 was expressed with several HATs including p300, CBP or GCN5 in cells, followed by co-immunoprecipitation (Co-IP) with anti-Flag antibody and immunoblotting with anti-acetyl lysine antibody. […] Moreover, Pin1 Co-IPed with p300, supporting that p300 is a HAT for Pin1. For the corresponding HDAC, various HDAC inhibitors targeting different HDAC categories were used, including Trichostatin A (TSA) and MS-275 for class I and II HDACs as well as Nicotinamide (NAM) and Splitomicin (Splito) for class III HDACs.
# [1] = test system: Pin1 and SIRT1 interaction; test: Pin1 and SIRT1 interaction by Co-IP and co-immunostaining; format: cell-based; details: Co-IP (FIG. 1 K) and co-immunostaining (FIG. 1 L)
# From the text: Out of the seven Sirtuin family members, SIRT1, 2, 6, and 7 associated with Pin1 as shown by Co-IP and GST pull-down (FIG. 1 F). However, only SIRT1 reduced Pin1 acetylation (FIG. 1 G). Furthermore, overexpression of wild-type (WT), but not its catalytic dead (H363Y) mutant, induced Pin1 deacetylation in cells (FIG. 1 H). […] In addition, since other studies have shown that glucose starvation activates SIRT1 activity, an investigation was made to know whether glucose starvation-induced Pin1 deacetylation is mediated by SIRT1.
# [2] = HDAC inhibitors in cells, FIG. 1 E
structure (smiles),measurement,setting,value
"O=C1CCc2c(ccc3ccccc23)O1 [Splito, Splitomicin]",effect on Pin1 acetylation,Pin1 acetylation; [2],increased Pin1 acetylation
CCCCCCCCCCCCCCCc1cccc(O)c1C(=O)O [Anacardic acid],effect on p300-increased Pin1 acetylation (Acetyl-Pin1),"Pin1 acetylation; cells overexpressing p300 with Flag-Pin1, FIG. 1 D",reversed
"O=CC[C@@H](O)[C@H](O)[C@H](O)CO [2-DG, 2-deoxyglucose]",effect on Pin1 acetylation,"Pin1 acetylation; mimicking glucose starvation, FIG. 1 B",reduction in Pin1 acetylation in a time- or dose-dependent manner
same,Pin1 binding with SIRT1,[1],increased binding with SIRT1
"NC(=O)c1cccnc1 [NAM, Nicotinamide]",effect on Pin1 acetylation,Pin1 acetylation; [2],increased Pin1 acetylation
